Test results taken from PubChem BioAssay (NCI).
Several values for one entry are separate records, joined by “and”; a condition that tells them apart may be missing. Equal entries are not always repeated.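 The compound was tested at five concentrations on cells cultured in 96-well plates, with a 48-hour exposure period. GI50: concentration for 50% inhibition of growth. TGI denotes the concentration required for complete inhibition of growth.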

Assays:
Experiment in all cases: NCI anticancer screen, dose series, 48 h
[1] = tested on: HOP-92 NSCLC
[2] = tested on: KM12 colon
[3] = tested on: IGROV1 ovarian
[4] = tested on: CAKI-1 renal
[5] = tested on: HCC-2998 colon
[6] = tested on: OVCAR-8 ovarian
[7] = tested on: MALME-3M melanoma
[8] = tested on: NCI/ADR-RES ovarian
[9] = tested on: COLO 205 colon
[10] = tested on: OVCAR-3 ovarian
[11] = tested on: NCI-H522 lung

Row | Structure (SMILES) | TGI [1] [µM] | TGI [2] [µM] | TGI [3] [µM] | TGI [4] | TGI [5] | TGI [6] | TGI [7] [µM] | TGI [8] [µM] | TGI [9] [µM] | TGI [10] [µM] | GI50 [1] | GI50 [2] | GI50 [3] | GI50 [11] | TGI [11] [µM] | GI50 [5] [µM] | GI50 [6] [µM] | GI50 [9] [µM] | GI50 [10] | GI50 [4] [µM]
1 | CC(=O)OCC1OC(N2C(=O)CC(N)=Nc3ccccc32)C(OC(C)=O)C(OC(C)=O)C1OC(C)=O (stereo unspecified) | > 100 | > 100 | > 100 | > 100 µM | > 100 µM | > 100 µM | > 100 | > 100 | 29.7 | > 100 |  |  |  |  |  |  |  |  |  | 
2 | Nc1nccc2c1ncn2C1C=C(CO)C(O)C1O (stereo unspecified) | > 1000 | > 1000 | > 1000 |  | > 1000 µM | > 1000 µM |  |  | > 1000 | > 1000 | > 1000 µM | 0.755 µM | > 1000 µM | > 1000 µM | > 1000 | 3.28 | 23.9 | 7.35 | 136 µM | 
3 | Cc1ccc(NC(=O)CC(=O)n2nc(-c3ccccc3)c(N=Nc3ccccc3C(=O)O)c2-c2ccccc2)cc1 | > 100 | > 100 | > 100 | > 100 µM | > 100 µM | > 100 µM | > 100 |  | > 100 | > 100 |  |  |  |  | > 100 |  |  |  |  | 
4 | O=C1/C(=C/c2ccc3c(c2)OCO3)Sc2scc(-c3ccc(O)c(O)c3)[n+]21 | 7.58 | 13.1 | 8.09 | 2.9 µM | 3.64 µM | 9.94 µM |  | 4.48 | > 19.7 | 15.3 |  |  |  |  |  |  |  |  |  | 
5 | Cc1cc(O)c2cc3c(O)c(O)ccc3cc2c1 | > 22.8 | 2.32 | 10.8 | 6.63 µM | 16.4 µM | 11.2 µM | 3.52 | 5.89 | 1.46 | 6.04 |  |  |  |  | 3.98 |  |  |  |  | 
6 | O=CN(O)CC(=O)O.[Ni] | > 100 | > 100 | > 100 | > 100 µM | > 100 µM | > 100 µM | > 100 | > 100 | > 100 | > 100 |  |  |  | > 100 µM | > 100 |  |  |  |  | > 100
7 | OCCSCc1cc(Cl)cc(Cl)c1O | > 100 | > 100 | > 100 | > 100 µM | > 100 µM | > 100 µM | > 100 | > 100 | > 100 | > 100 |  |  |  |  | > 100 |  |  |  |  | 
8 | NS(=O)(=O)c1ccc(N=Nc2ccc(O)c(O)c2)cc1 | 69.3 | 32.5 | 28.3 | > 100 µM | 41.3 µM | 21.5 µM | 54.9 | 73.2 | 40.3 | > 100 |  |  |  |  | 3.1 |  |  |  |  | 
9 | CC(=O)C1=C(C)N(c2ccc(C)cc2)C2(O)C=CC(=O)C3=C(O)c4ccccc4C(=O)C312 (stereo unspecified) | > 100 | 55.1 | > 100 | 35.8 µM | 42.2 µM | 64.6 µM | 5.07 | > 100 | > 100 | 16.1 |  |  |  |  | 32.5 |  |  |  |  | 
10 | CC(C)(C)C(=O)CC(=O)C(F)(F)C(F)(F)C(F)(F)F.CC(C)(C)C(=O)CC(=O)C(F)(F)C(F)(F)C(F)(F)F.CC(C)(C)C(=O)CC(=O)C(F)(F)C(F)(F)C(F)(F)F.[Er] |  | > 100 | > 100 | > 100 µM | > 100 µM | > 100 µM | > 100 |  | > 100 | > 100 |  |  |  | 94 µM | > 100 | 43.5 |  |  |  | 
11 | Cc1ccc([S+](c2ccccc2)c2cc(C)ccc2C)cc1 (stereo unspecified) |  | > 100 | 25.3 | > 100 µM | 28.5 µM | > 100 µM | > 100 |  | 61.2 | > 100 |  |  |  |  | 28.2 |  |  |  |  | 
12 | O=CNNC(=O)CSc1nc2ccc(I)cc2c(=O)n1Cc1ccccc1 | 63.3 | > 100 | > 100 | 57.5 µM | 81.6 µM | > 100 µM |  | > 100 | 36.4 | 50.2 |  |  |  |  | 57.4 |  |  |  |  | 
13 | O=C1CC(NC2CC(=O)c3c(Br)sc(Br)c32)c2c(Br)sc(Br)c21 (stereo unspecified) | 21.5 | 6.03 | 8.43 | 9.72 µM | 30.8 µM | 10.3 µM | 5.62 | > 86.8 | 8.77 | > 100 |  |  |  |  | 3.69 |  |  |  |  | 
14 | COC[C@@H]1Cc2cc(OC)c3c(c2[C@H](c2ccc(OC)c(OC)c2)[C@H]1COC)OCO3 | > 100 | > 100 | > 100 |  | > 100 µM | > 100 µM | > 100 |  | > 100 | > 100 |  |  |  |  | > 100 |  |  |  |  | 
15 | O=NN(CCCl)C(=O)Nc1ccc(Cl)c(Cl)c1 | 97.8 | > 100 | > 100 | > 100 µM | > 100 µM | > 100 µM | > 100 | > 100 | > 100 | > 100 |  |  |  |  | > 89.5 |  |  |  |  | 
16 | O=S(=O)(c1ccccc1)[C@@H]1[C@H]2C=C[C@](CS)(O2)[C@H]1S(=O)(=O)c1ccccc1 | > 100 | > 100 | > 100 | 92.3 µM | > 100 µM | > 100 µM | > 100 | > 100 | > 100 | 63.5 |  |  |  |  | 31.7 |  |  |  |  | 
17 | COc1cc(CCC(=O)O)c2cc3ccccc3cc2c1O | 88.3 | 44.1 | 41.1 | 33.8 µM | 65.2 µM | 30.6 µM | 32.3 | 80.7 | 36.2 | 51.7 |  |  |  |  | 45.1 |  |  |  |  | 
18 | O=[N+]([O-])c1ccc(/C=N/n2c(CCc3n[nH]c(=S)n3/N=C/c3ccc([N+](=O)[O-])o3)n[nH]c2=S)o1 | 33.6 | 64.4 | > 100 | 44.8 µM | 33 µM | > 100 µM |  | 88.7 |  | 54.2 |  |  |  |  | 47.3 |  |  |  |  | 
19 | O=C1CSc2sc(=S)sc2S1 | > 100 | > 100 | > 100 |  | > 100 µM | > 100 µM | > 100 | > 100 | > 100 | > 100 |  |  |  |  | > 100 |  |  |  |  | 
20 | Oc1ccc(NCc2cc(O)ccc2O)cc1 | 31.5 | 42 | 34.2 | 34.9 µM | 30.8 µM | > 100 µM | 34.3 | 51.3 | 62.3 | 32 |  |  |  |  |  |  |  |  |  | 
21 | COc1cccc2c1C(=O)c1c(O)c3c(c(O)c1C2=O)C[C@@](O)(C(C)=O)C[C@@H]3OC1CC(N(C)C)C(O)C(C)O1 (stereo partly specified) |  |  |  | 0.56 µM and 0.593 µM | 0.27 µM and 0.205 µM | 2.8 µM and 3.75 µM |  | 1.87 |  |  | 0.00454 µM and < 0.0147 µM | 0.0171 µM and 0.0131 µM | 0.0218 µM and < 0.0111 µM | 0.036 µM and 0.021 µM |  |  | 0.00719 | 0.0133 | 0.108 µM and 0.155 µM | 
22 | O=C1NC2(NC(=O)C1=O)Nc1ccccc1S2 | > 100 | > 100 | > 100 | > 100 µM | > 100 µM | > 100 µM | > 100 |  | > 54.9 | > 100 |  |  |  |  | 50 |  |  |  |  | 
23 | CC(C)(C)OC(=O)N1CCCC1C(=O)NCCNc1ccc(NCCNC(=O)C2CCCN2C(=O)OC(C)(C)C)c2c1C(=O)c1ccccc1C2=O (stereo unspecified) | 30.1 | 41.7 | 31.7 | 36.9 µM | 25.7 µM | 21 µM | 33 | 29.6 | 27.5 | 27.1 |  |  |  |  | 29.7 |  |  |  |  | 
